Assay results as given in US20190083497A1, “MODULATION OF BLOOD BRAIN BARRIER PERMEABILITY” (Cornell University, priority 2008, published 2019).

Columns and labels:
blood brain barrier [1] = assay: Evans Blue dye extravasation across the blood brain barrier after single i.v. treatment; format: in vivo, mouse; details: 100 μl 0.01 nM single i.v. one hour before dye, brain harvested four hours after dye
Protocol: The objective of this experiment was to determine if the blood brain barrier could be modulated by activation of adenosine receptors. NECA is a non-selective adenosine receptor agonist, with similar affinities for A1, A2a and A3 adenosine receptors and a low affinity for the A2b adenosine receptor. In order to determine if activation of adenosine receptors would induce extravasation of Evans Blue dye across the blood brain barrier (BBB), mice were treated with: NECA, a non-selective adenosine receptor agonist (n=5, 100 μl 0.01 nM); SCH58261, an A2a adenosine receptor specific antagonist (n=5, 1 mg/kg); pertussis toxin, an agent known to induce BBB leakiness and as such used as a positive control (n=7, 200 μl); and, PBS as a vehicle control (n=5, 100 μl). CD73^−/− mice, which lack the ability to produce extracellular adenosine, were also treated with NECA (n=4, 100 μl 0.01 nM). Treatments were administered as a single i.v. injection one hour prior to i.v. injection of 200 μl 1% Evans Blue dye ([…] total dye injected). Four hours after administration of Evans Blue, mice were anesthetized with a ketamine/xylazine mix and perfused via the left ventricle with ice cold PBS. […] Following extraction, the tissue/solvent mixture was centrifuged at 500×g for 30 minutes and 100 μl of supernatant was read on a BioTex spectrophotometer at 620 nm. Data is expressed as μg Evans Blue/ml DMF.

hCMEC/D3 cells [2] = assay: Jurkat cell migration across hCMEC/D3 transwell in vitro BBB; format: cell-based, human; details: hCMEC/D3 on Transwell; migrated cells counted after 24 hours
Text: The blood brain barrier (BBB) is comprised of endothelial cells. During late stages of EAE, lymphocytes are known to cross the BBB. In order to determine if adenosine receptor stimulation of brain endothelial cells could promote lymphocyte migration through the BBB, an in vitro BBB was established. The human brain endothelial cell line hCMEC/D3 (Weksler et al., “Blood-brain Barrier-specific Properties of a Human Adult Brain Endothelial Cell Line,” J. Neurochem. 19(13):1872-4 (2005); Poller et al., “The Human Brain Endothelial Cell Line hCMEC/D3 as a Human Blood-brain Barrier Model for Drug Transport Studies,” J. Neurochem. 107(5):1358-1368 (2008), which are hereby incorporated by reference in their entirety) was obtained, which has been previously described as having BBB properties.
hCMEC/D3 cells were seeded onto Transwell and allowed to grow to confluencey. 2×10^6 Jurkat cells were added to the upper chamber with or without NECA (general adenosine receptor [AR] agonist), CCPA (A1AR agonist), CGS 21680 (A2AAR agonist), or DMSO vehicle. After 24 hours, migrated cells in the lower chamber were counted. Values are relative to the number of cells that migrate through non-HCMECD3 seeded transwells.

Z310 cells = assay: Jurkat cell migration across Z310 choroid plexus cell transwell; format: cell-based, murine; details: Z310 cells on Transwell; migrated cells counted after 24 hours; n=1
Protocol: The choroid plexus (“CP”) controls lymphocyte migration into the CNS. The CP expresses the A1 and A2a adenosine receptors. EAE is prevented in mice when A2a adenosine receptor activity is blocked. EAE is enhanced when the A1 adenosine receptor is missing. It was hypothesized that A2a adenosine receptor activation promotes lymphocyte migration across the CP. Z310 cells are a murine choroid plexus cell line. To test the hypothesis, Transwell membranes were seeded with Z310 cells and allowed to grow to confluencey. 2×10^6 Jurkat cells were added to the upper chamber with or with out NECA (n=1, general AR agonist), CCPA (n=1, A1AR agonist), CGS 21680 (n=1, A2AAR agonist), or DMSO vehicle(n=1). After 24 hours, migrated cells in the lower chamber were counted. Values are relative to the number of cells that migrate through non-Z310 seeded transwells and the results are shown in FIG. 12.

hCMEC/D3 cells [3] = assay: cAMP levels in hCMEC/D3 cells (cAMP Screen kit); format: cell-based, human; details: 15 minutes treatment, various concentrations
Protocol: Adenosine receptor activation regulates cAMP levels in cells. In order to determine the sensitivity of human brain endothelial cells to adenosine receptor induced cAMP regulation, human brain endothelial cells were cultured with adenosine receptor agonists at various concentrations, followed by cAMP level analysis, as shown in FIG. 13.
HCMECD3 cells were grown to confluencey on 24 well plates. As adenosine receptor (“AR”) stimulation is known to influence cAMP levels, cells were treated with or without various concentrations of NECA (general AR agonist), CCPA (A1AR agonist), CGS 21680 (A2AAR agonist), DMSO vehicle, or Forksolin (induces cAMP). After 15 minutes, lysis buffer was added and the cells were frozen at −80 C to stop the reaction. Duplicate samples were used for each condition. cAMP levels were assayed using a cAMP Screen kit (Applied Biosystems, Foster City, Calif.).

blood brain barrier [4] = assay: Evans Blue dye extravasation across the blood brain barrier in mice immunized for EAE; format: in vivo, mouse; details: WT EAE mice; 100 μl 0.01 nM on day 1, 3, 5, 7, 9; dye on day 10, brain harvested six hours later; vs PBS control EAE mice
Protocol: In order to determine if activation of adenosine receptors would induce extravazation of Evans Blue dye across the blood brain barrier (BBB), mice were first treated on day one with NECA, a non-selective adenosine receptor agonist (n=2, 100 μl 0.01 nM); and, PBS as a vehicle control (n=2, 100 μl). On day 2 mice were then immunized with CFA-MOG35-55 and pertussis to induce EAE. Then NECA or PBS was administered every other day on day 3, day 5, day 7 and day 9. On day 10, mice were injected intravenously with 200 μl 1% Evans Blue dye ([…] total dye injected). Six hours after administration of Evans Blue, mice were anesthetized with a ketamine/xylazine mix and perfused via the left ventricle with ice cold PBS. Brains were harvested and homogenized in n,n-dimethylformamide (DMF) at 5 μl/mg (v:w). Tissue was incubated for 72 hours at room temperature in DMF to extract the dye. Following extraction, the tissue/solvent mixture was centrifuged at 500×g for 30 minutes and 100 μl of supernatant was read on a BioTex spectrophotometer at 620 nm.

## CCNC(=O)[C@H]1O[C@@H](n2cnc3c(N)ncnc32)[C@H](O)[C@@H]1O [NECA]
Blood brain barrier [1]; CD73-/- mice, vs PBS control
  Evans Blue dye migration across the blood brain barrier: almost five fold increase in dye migration vs. the PBS control
Blood brain barrier [1]; WT mice, vs control mice
  Evans Blue dye migration across the blood brain barrier: increase over control mice
hCMEC/D3 cells [2]
  lymphocyte (Jurkat) migration across the in vitro BBB: induced some migration
Z310 cells
  lymphocyte (Jurkat) migration across the CP: induced migration
hCMEC/D3 cells [3]
  cAMP levels: increased cAMP levels
Blood brain barrier [4]
  BBB permeability (Evans Blue dye migration into the CNS): increase in BBB permeability over PBS control EAE mice
